Laboratory results reported in US9193756B2, “Adrenomedullin production enhancer” (National University Corporation ASAHIKAWA MEDICAL COLLEGE, priority 2008, dated 2015).

Experiments:
[1] = system: distal colon blood flow; experiment: Blood flow-increasing effects of components in crude drugs (2): 6-shogaol; format: in vivo, rat; conditions: for Rate of increase in VC: into the colon, mg/kg: 6-shogaol 2, ginsenoside Rb1 1
Method: Male SD rats (8 to 10 weeks of age) were used. 6-Shogaol was added to a 1% aqueous solution of Tween 80 to obtain a concentration of 0.4 mg/mL, and the resulting solution was used as a test specimen. Furthermore, ginsenoside Rb1 and 6-shogaol were added to a 1% aqueous solution of Tween 80 at concentrations of 0.2 mg/mL and 0.4 mg/mL, respectively, to prepare test specimens. After preliminarily placing an 18 G Surflo indwelling needle inserted through the caecum, 5 mL/kg portions of test specimens which had been kept warm at 37° C. were administered into the colon 0.5 to 1 hour later, by which time baseline blood flow had stabilized. A control group was administered 1% aqueous solution of Tween 80.
(§1) A polyethylene tube with an inner diameter of 0.8 mm was inserted through the left common carotid artery of an anesthetized rat, and the tip was left indwelling in the left ventricle. A tracheal cannula was placed indwelling in the trachea and connected to a respirator (SN-480-7); artificial respiration was then performed at a frequency of 60 RPM. Body temperature was maintained at 37±0.5° C. by a temperature controller (NS-TC10).

[2] = system: distal colon blood flow; experiment: Blood flow-increasing effects of components in crude drugs (1): hydroxysanshool, ginsenosides; format: in vivo, rat; conditions: for Rate of increase in VC: into the colon, mg/kg: H-sanshool 0.3, ginseng 30, ginsenoside Rb1 1, ginsenoside Rg1 1, mean
Method: Male SD rats (8 to 10 weeks of age, body weight 240 to 360 g) were used (n=2 to 6). Hydroxy-β-sanshool, ginsenoside Rb1, or ginsenoside Rg1 was added to a 1% aqueous solution of Tween 80 to obtain concentrations of 0.06 mg/mL, 0.2 mg/mL, and 0.2 mg/mL, respectively, and the resulting solutions were used as the respective test specimens for administration of individual crude drug components. Furthermore, test specimens for the administration of hydroxysanshool with a ginseng extract, ginsenoside Rb1, or ginsenoside Rg1 in combination were prepared by adding, to a 1% aqueous solution of Tween 80, hydroxysanshool at a concentration of 0.06 mg/mL, and a powdered ginseng extract, ginsenoside Rb1, or ginsenoside Rg1 at a concentration of 6 mg/mL, 0.2 mg/mL, or 0.2 mg/mL, respectively. After preliminarily placing an 18 G Surflo indwelling needle inserted through the caecum, 5 mL/kg portions of test specimens which had been kept warm at 37° C. were administered into the colon 0.5 to 1 hour later, by which time baseline blood flow had stabilized. A control group was administered a 1% aqueous solution of Tween 80.
as §1, with “(NS-TC10). […] The results of measurement are expressed as the mean value±standard error (S.E.M.). Comparison of effects was performed by one-way analysis of variance (ANOVA), followed by the Scheffe multiple comparison test. A risk rate of 5% or less was employed as the significance level.” for “(NS-TC10).”

| Structure (SMILES) | Rate of increase in VC ([1]; 15 min) [%] | Rate of increase in VC ([1]; 30 min) [%] | Rate of increase in VC ([1]; 45 min) [%] | Rate of increase in VC ([1]; 60 min) [%] | Rate of increase in VC ([1]; 75 min) [%] | Rate of increase in VC ([1]; 90 min) [%] | Blood flow increase (in words) ([1]; Example 5, administration into the colon) | Time of peak increase in blood flow ([1]; after administration into the colon) [min] | Rate of increase in VC ([2]; 15 min) [%] | Rate of increase in VC ([2]; 30 min) [%] | Rate of increase in VC ([2]; 45 min) [%] | Rate of increase in VC ([2]; 60 min) [%] | Rate of increase in VC ([2]; 75 min) [%] | Rate of increase in VC ([2]; 90 min) [%] | Blood flow / VC increase (in words) ([2]; Example 4, administration into the colon) |
| --- | --- | --- | --- | --- | --- | --- | --- | --- | --- | --- | --- | --- | --- | --- | --- |
| CCCCC/C=C/C(=O)CCc1ccc(O)c(OC)c1 [6-Shogaol, 6-shogaol] | 58.32 | 61.20 | 53.07 | 42.55 | 46.68 | 32.92 | induced an increase in blood flow | 30 | – | – | – | – | – | – | – |
| CC(C)=CCC[C@](C)(O[C@@H]1O[C@H](CO)[C@@H](O)[C@H](O)[C@H]1O)[C@H]1CC[C@]2(C)[C@@H]1[C@H](O)C[C@@H]1[C@@]3(C)CC[C@H](O)C(C)(C)[C@@H]3[C@@H](O[C@@H]3O[C@H](CO)[C@@H](O)[C@H](O)[C@H]3O)C[C@]12C [Ginsenoside Rg1, ginsenoside Rg1] | – | – | – | – | – | – | – | – | −10.83 | 5.84 | 16.29 | 10.92 | 12.25 | 18.11 | – |
| CC(C)=CCC[C@](C)(O[C@@H]1O[C@H](CO[C@@H]2O[C@H](CO)[C@@H](O)[C@H](O)[C@H]2O)[C@@H](O)[C@H](O)[C@H]1O)[C@H]1CC[C@]2(C)[C@@H]1[C@H](O)C[C@@H]1[C@@]3(C)CC[C@H](O[C@@H]4O[C@H](CO)[C@@H](O)[C@H](O)[C@H]4O[C@@H]4O[C@H](CO)[C@@H](O)[C@H](O)[C@H]4O)C(C)(C)[C@@H]3CC[C@]12C [Ginsenoside Rb1, ginsenoside Rb1] | – | – | – | – | – | – | – | – | 11.72 | 18.87 | 60.21 | 26.20 | 40.81 | 19.98 | – |
| C/C=C/C=C/C=C/CC/C=C/C(=O)NCC(C)(C)O [H-sanshool, Hydroxy-β-sanshool] | – | – | – | – | – | – | – | – | 3.89 | 5.79 | 2.09 | 9.46 | 8.58 | 4.19 | did not increase blood flow |
